Source: US20130142831A1, “COMPOUNDS FOR INFLAMMATION AND IMMUNE-RELATED USES” (Synta Pharmaceuticals Corp., priority 2004, published 2013)

Test system: IL-2 production
Assay: Inhibition of IL-2 production in PHA-activated Jurkat cells
Format: cell-based
Settings: Homo sapiens, PHA 2.5 μg/mL, 20 hours, bins given in nM
Description: Jurkat cells were placed in a 96 well plate (0.5 million cells per well in 1% FBS medium) then test compounds of this invention were added at different concentrations. After 10 minutes, the cells were activated with PHA (final concentration 2.5 μg/mL) and incubated for 20 hours at 37° C. under CO2. The final volume was 200 μL. Following incubation, the cells were centrifuged and the supernatants collected and stored at −70° C. prior to assaying for IL-2 production. A commercial kit (IL-2 Eli-pair, Diaclone Research, Besancon, France) was used to detect production of IL-2, from which dose response curves were obtained. The IC50 value was calculated as the concentration at which. 50% of maximum IL-2 production after stimulation was inhibited versus a non-stimulation control.

SMILES | IC50 [nM]
COc1ccc2c(c1)nc(C(F)(F)F)n2-c1ccc(NC(=O)c2cc(F)cc(F)c2F)cc1 [Compound 2, 2,3,5-Trifluoro-N-[4-(2-trifluoromethyl-5-methoxy-benzoimidazol-1-yl)-phenyl]-benzamide] | < 100
COc1ccc2c(c1)nc(C(F)(F)F)n2-c1ccc(NC(=O)c2ccc(F)c(F)c2F)cc1 [Compound 3, 2,3,4-Trifluoro-N-[4-(2-trifluoromethyl-5-methoxy-benzoimidazol-1-yl)-phenyl]-benzamide] | < 100
COc1ccc2c(c1)nc(C(F)(F)F)n2-c1ccc(NC(=O)c2cccc(F)c2F)cc1 [Compound 4, 2,3-Difluoro-N-[4-(2-trifluoromethyl-5-methoxy-benzoimidazol-1-yl)-phenyl]-benzamide] | < 100
COc1ccc2c(c1)nc(C(F)(F)F)n2-c1ccc(NC(=O)c2ccncc2C)cc1 [Compound 5, 3-Methyl-N-[4-(2-trifluoromethyl-5-methoxy-benzoimidazol-1-yl)-phenyl]-isonicotinamide] | < 100
COc1ccc2c(c1)nc(C(F)(F)F)n2-c1ccc(NC(=O)c2ccncc2F)cc1 [Compound 6, 3-Fluoro-N-[4-(2-trifluoromethyl-5-methoxy-benzoimidazol-1-yl)-phenyl]-isonicotinamide] | < 100
COc1ccc2c(c1)nc(C(F)(F)F)n2-c1ccc(NC(=O)c2cc(F)c(Cl)cc2Cl)cc1 [Compound 7, 2,4-Dichloro-5-fluoro-N-[4-(2-trifluoromethyl-5-methoxy-benzoimidazol-1-yl)-phenyl]-benzamide] | < 100
O=C(Nc1ccc(-c2c(C(F)(F)F)cc3n2CCCC3)cc1)c1cccc(F)c1F [Compound 8, 2,3-Difluoro-N-[4-(2-trifluoromethyl-5,6,7,8-tetrahydroindolizin-3-yl)-phenyl]-benzamide] | < 100
COc1ccc2c(c1)nc(C(F)(F)F)n2-c1ccc(NC(=O)c2cccc([N+](=O)[O-])c2)cc1 [Compound 10, 3-Nitro-N-[4-(2-trifluoromethyl-5-methoxy-benzoimidazol-1-yl)-phenyl]-benzamide] | < 100
CSc1nc2ccccc2n1-c1ccc(NC(=O)c2cccc(F)c2F)cc1 [Compound 11, 2,3-Difluoro-N-[4-(2-methylsulfanyl-benzoimidazol-1-yl)-phenyl]-benzamide] | < 100
Fc1cccc(C(=S)Nc2ccc(-n3c(C(F)(F)F)nc4ccccc43)cc2)c1F [Compound 12, 2,3-Difluoro-N-[4-(2-trifluoromethyl-benzoimidazol-1-yl)-phenyl]-thiobenzamide] | < 100
O=C(Nc1ccc(-n2c(C(F)(F)F)nc3ccccc32)cc1)c1cccc(Cl)c1Cl [Compound 13, 2,3-Dichloro-N-[4-(2-trifluoromethyl-benzoimidazol-1-yl)-phenyl]-benzamide] | < 100
COc1ccc2nc(C(F)(F)F)n(-c3ccc(NC(=O)c4cccc(F)c4F)cc3)c2c1 [Compound 14, 2,3-Difluoro-N-[4-(2-trifluoromethyl-6-methoxy-benzoimidazol-1-yl)-phenyl]-benzamide] | < 100
O=C(Nc1ccc(-n2c(C(F)(F)F)nc3ccccc32)cc1)c1cccc(Cl)c1F [Compound 15] | 100 to 500
Nc1cc(F)c(F)c(C(=O)Nc2ccc(-n3c(C(F)(F)F)nc4ccccc43)cc2)c1F [Compound 16, 2,3,6-Trifluoro-5-amino-N-[4-(2-trifluoromethyl-benzoimidazol-1-yl)-phenyl]-benzamide] | 100 to 500
Cc1cc(NC(=O)c2cccc(F)c2F)ccc1-n1c(C(F)(F)F)nc2ccccc21 [Compound 17, 2,3-Difluoro-N-[3-methyl-4-(2-trifluoromethyl-benzoimidazol-1-yl)-phenyl]-benzamide] | 100 to 500
Cc1ccccc1C(=O)Nc1ccc(-c2c(C(F)(F)F)cc3n2CCCC3)cc1 [Compound 18, 2-Methyl-N-[4-(2-trifluoromethyl-5,6,7,8-tetrahydroindolizin-3-yl)-phenyl]-benzamide] | 100 to 500
N#Cc1ccc2nc(C(F)(F)F)n(-c3ccc(NC(=O)c4cccc(F)c4F)cc3)c2c1 [Compound 20, 2,3-Difluoro-N-[4-(2-trifluoromethyl-6-cyano-benzoimidazol-1-yl)-phenyl]-benzamide] | 100 to 500
Nc1cccc2c1nc(C(F)(F)F)n2-c1ccc(NC(=O)c2cccc(F)c2F)cc1 [Compound 21, 2,3-Difluoro-N-[4-(2-trifluoromethyl-4-amino-benzoimidazol-1-yl)-phenyl]-benzamide] | 100 to 500

SMILES | IC50 [nM]
CC(C)(C)OC(=O)Nc1cc(F)c(F)c(C(=O)Nc2ccc(-n3c(C(F)(F)F)nc4ccccc43)cc2)c1F [Compound 22, N-(3-{N-[4-(2-trifluoromethyl-benzoimidazol-1-yl)-phenyl]-carbamoyl}-2,4,5-trifluoro-phenyl)-carbamic acid t-butyl ester] | 100 to 500
O=C(Nc1ccc(-n2c(Cl)nc3ccccc32)cc1)c1cccc(F)c1F [Compound 23, 2,3-Difluoro-N-[4-(2-chloro-benzoimidazol-1-yl)-phenyl]-benzamide] | 100 to 500
Cc1nnsc1C(=O)Nc1ccc(-c2c(Cl)cc3n2CCCC3)cc1 [Compound 24, 4-Methyl-[1,2,3]thiadiazole-5-carboxylic acid {N-[4-(2-chloro-5,6,7,8-tetrahydroindolizin-3-yl)-phenyl]} amide] | 100 to 500
O=C(Nc1ccc(-n2c(C(F)(F)F)nc3ccccc32)cc1)c1cc(F)ccc1F [Compound 26, 2,5-Difluoro-N-[4-(2-trifluoromethyl-benzoimidazol-1-yl)-phenyl]-benzamide] | 100 to 500
O=C(Nc1ccc(-n2c(C(F)(F)F)nc3ccccc32)cc1)c1ccncc1F [Compound 27, 3-Fluoro-N-[4-(2-trifluoromethyl-benzoimidazol-1-yl)-phenyl]-isonicotinamide] | 100 to 500
O=C(Nc1ccc(-n2c(Br)nc3ccccc32)cc1)c1cccc(F)c1F [Compound 28, 2,3-Difluoro-N-[4-(2-bromo-benzoimidazol-1-yl)-phenyl]-benzamide] | 100 to 500
Cc1nnsc1C(=O)Nc1ccc(-n2c(C(F)(F)F)nc3ccccc32)cc1 [Compound 29, 4-Methyl-[1,2,3]thiadiazole-5-carboxylic acid {N-[4-(2-trifluoromethyl-benzoimidazol-1-yl)-phenyl]} amide] | 100 to 500
O=C(Nc1ccc(-n2c(C(F)(F)F)nc3ccccc32)c(C(F)(F)F)c1)c1cccc(F)c1F [Compound 30, 2,3-Difluoro-N-[3-trifluoromethyl-4-(2-trifluoromethyl-benzoimidazol-1-yl)-phenyl]-benzamide] | 100 to 500
CC(C)(C)OC(=O)Nc1ccc(C(=O)Nc2ccc(-n3c(C(F)(F)F)nc4ccccc43)cc2)c(F)c1F [Compound 31, N-(4-{N-[4-(2-trifluoromethyl-benzoimidazol-1-yl)-phenyl]-carbamoyl}-2,3-difluoro-phenyl)-carbamic acid t-butyl ester] | 100 to 500
COc1cc2nc(C(F)(F)F)n(-c3ccc(NC(=O)c4cccc(F)c4F)cc3)c2cc1OC [Compound 32, 2,3-Difluoro-N-[4-(2-trifluoromethyl-5,6-dimethoxy-benzoimidazol-1-yl)-phenyl]-benzamide] | 100 to 500
O=C(Nc1ccc(-n2c(I)nc3ccccc32)cc1)c1cccc(F)c1F [Compound 33, 2,3-Difluoro-N-[4-(2-iodo-benzoimidazol-1-yl)-phenyl]-benzamide] | 100 to 500
Fc1ccc(F)c(NC(=S)Nc2ccc(-n3c(C(F)(F)F)nc4ccccc43)nc2)c1 [Compound 34, N′-[2-(2-trifluoromethyl-benzoimidazol-1-yl)-pyrid-5-yl]-N-(2,5-difluoro-phenyl)-thiourea] | 100 to 500
CC(C)(C)c1ccc2c(c1)nc(C(F)(F)F)n2-c1ccc(NC(=O)c2cccc(F)c2F)cc1 [Compound 35, 2,3-Difluoro-N-[4-(2-trifluoromethyl-5-tert-butyl-benzoimidazol-1-yl)-phenyl]-benzamide] | 100 to 500
N#Cc1cc(NC(=O)c2cccc(F)c2F)ccc1-n1c(C(F)(F)F)nc2ccccc21 [Compound 37, 2,3-Difluoro-N-[3-cyano-4-(2-trifluoromethyl-benzoimidiazol-1-yl)-phenyl]-benzamide] | 100 to 500
O=C(Nc1ccc(-n2c(C(F)(F)F)nc3ccccc32)c(Cl)c1)c1cc(F)ccc1F [Compound 38, 2,5-Difluoro-N-[3-chloro-4-(2-trifluoromethyl-benzoimidazol-1-yl)-phenyl]-benzamide] | 100 to 500
Nc1ccc2c(c1)nc(C(F)(F)F)n2-c1ccc(NC(=O)c2cccc(F)c2F)cc1 [Compound 39, 2,3-Difluoro-N-[4-(2-trifluoromethyl-5-amino-benzoimidazol-1-yl)-phenyl]-benzamide] | 100 to 500
C[S+]([O-])c1nc2ccccc2n1-c1ccc(NC(=O)c2cccc(F)c2F)cc1 (centres unmarked) [Compound 40, 2,3-Difluoro-N-[4-(2-methanesulfinyl-benzoimidazol-1-yl)-phenyl]-benzamide] | 100 to 500

Same assay, conditions: Homo sapiens, PHA 2.5 μg/mL, 20 hours, bins given with μM limit

SMILES | IC50 [nM]
CC(C)c1nc2ccccc2n1-c1ccc(NC(=O)c2cccc(F)c2F)cc1 [Compound 49, 2,3-Difluoro-N-[4-(2-isopropyl-benzoimidazol-1-yl)-phenyl]-benzamide] | > 1000
O=C(Nc1ccc(-n2c(C(F)(F)F)nc3ccccc32)cc1)Nc1cc(F)ccc1F [Compound 50, N′-[4-(2-trifluoromethy-benzoimidazol-1-yl)-phenyl]-N-(2,5-difluoropheyl)-urea] | > 1000
O=C(Nc1ccc(-n2c(C(F)(F)F)nc3ccccc32)cc1)c1cc[n+]([O-])cc1F [Compound 51, 1-Oxo-3-fluoro-N-[4-(2-trifluoromethyl-benzoimidazol-1-yl)-phenyl]-isonicotinamide] | > 1000
